Measured values reported in US20060289019A1, “Information method and system for generating data for optimizing a medical treatment, and equipment used in this system” (IPPM HOLDING SA, priority 2005, published 2006).

Legend:
[1] = male, human, in vivo
Experimental: A patient suffering from schizo-affective disorder and from dual personality disorder reacts correctly to clozapine (clozaril, 600 mg/day, blood concentration: 502 ng/mL). They are also treated with lithium (eskalith, 900 mg/day). […] After 11 days the patient had to be admitted to the emergency department because they had too high a blood level of clozapine (2112 ng/mL).
Thus, the DEM will transfer the pharmacogenetic data from the DGSB. It will find, according to the pharmacokinetic data and studies on clozapine-fluvoxamine interaction, an appropriate function and the corresponding statistical values. […] The dosage of fluvoxamine is sought to be maintained constant. Still with reference to FIG. 3, the straight line which is of interest therefore, is that for which the blood level is 5 μM. […] The equation of this straight line (according to data taken from a publication) is y=3.7×/1.8 ? x=1.8y/3.7. Therefore if y=502 ng/mL then x=502*1.8/3.7=244 ng/mL. This means that the current dosage would need to be reduced by at least a half in order to avoid too great an interaction between the two products and especially to prevent a worrying blood level of clozapine in the blood. This optimization reasoning will be carried out by the OS as a function of the data which are sent to it by the DEM.

[2] = test system: clozapine N-demethylation; settings: cited from earlier work

| clozapine blood level x calculated from straight line x=1.8y/3.7 for y=502 ng/mL [1] | SMILES | clozapine N-demethylation inhibitor strength [2] |
| --- | --- | --- |
| 244 ng/mL | CN1CCN(C2=Nc3cc(Cl)ccc3Nc3ccccc32)CC1 [clozapine] |  |
|  | COCCCC/C(=N\OCCN)c1ccc(C(F)(F)F)cc1 [fluvoxamine] | strong |
